Laboratory results: PubChem BioAssay AID1918935 (Molecular Pharmacology Branch, DTP, NCI, 2023)

Tested on: 324938-238-R-J1-PDC complex spheroid viability
Test: Anticancer human tumor 324938-238-R-J1-PDC patient-derived bladder carcinoma cell line growth inhibition
Conditions: for IC50: curve of first compound; for viability, T/C: stronger effect = lower value
Procedure, shortened: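 Drug combinations with the LSD1 inhibitor iadademstat tested on tumor cells co-cultured as spheroids with endothelial cells and mesenchymal stem cells. Concentrations descended in half-log increments from clinical Cmax or 10 microM.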

[1] = second compound 0.1 µM, first compound 0.0316 µM
[2] = second compound 0.1 µM, first compound 0.1 µM
[3] = second compound 0.1 µM, first compound 0.316 µM
[4] = second compound 0.1 µM, first compound 1 µM
[5] = second compound 0.1 µM, first compound 3.16 µM
[6] = second compound 0.1 µM, first compound 10 µM
[7] = second compound 0.316 µM, first compound 0.0316 µM
[8] = second compound 0.316 µM, first compound 0.1 µM
[9] = second compound 0.316 µM, first compound 0.316 µM
[10] = second compound 0.316 µM, first compound 1 µM
[11] = second compound 0.316 µM, first compound 3.16 µM
[12] = second compound 0.316 µM, first compound 10 µM
[13] = second compound 1 µM, first compound 0.0316 µM
[14] = second compound 1 µM, first compound 0.1 µM
[15] = second compound 1 µM, first compound 0.316 µM
[16] = second compound 1 µM, first compound 1 µM
[17] = second compound 1 µM, first compound 3.16 µM
[18] = second compound 1 µM, first compound 10 µM
[19] = second compound 3.16 µM, first compound 0.0316 µM
[20] = second compound 3.16 µM, first compound 0.1 µM
[21] = second compound 3.16 µM, first compound 0.316 µM
[22] = second compound 3.16 µM, first compound 1 µM
[23] = second compound 3.16 µM, first compound 3.16 µM
[24] = second compound 3.16 µM, first compound 10 µM
[25] = second compound 10 µM, first compound 0.0316 µM
[26] = second compound 10 µM, first compound 0.1 µM
[27] = second compound 10 µM, first compound 0.316 µM
[28] = second compound 10 µM, first compound 1 µM
[29] = second compound 10 µM, first compound 3.16 µM
[30] = second compound 10 µM, first compound 10 µM
[31] = second compound 0.1 µM, first compound 0.00949 µM
[32] = second compound 0.1 µM, first compound 0.03 µM
[33] = second compound 0.1 µM, first compound 0.0949 µM
[34] = second compound 0.1 µM, first compound 0.3 µM
[35] = second compound 0.316 µM, first compound 0.00949 µM
[36] = second compound 0.316 µM, first compound 0.03 µM
[37] = second compound 0.316 µM, first compound 0.0949 µM
[38] = second compound 0.316 µM, first compound 0.3 µM
[39] = second compound 1 µM, first compound 0.00949 µM
[40] = second compound 1 µM, first compound 0.03 µM
[41] = second compound 1 µM, first compound 0.0949 µM
[42] = second compound 1 µM, first compound 0.3 µM
[43] = second compound 3.16 µM, first compound 0.00949 µM
[44] = second compound 3.16 µM, first compound 0.03 µM
[45] = second compound 3.16 µM, first compound 0.0949 µM
[46] = second compound 3.16 µM, first compound 0.3 µM
[47] = second compound 10 µM, first compound 0.00949 µM
[48] = second compound 10 µM, first compound 0.03 µM
[49] = second compound 10 µM, first compound 0.0949 µM
[50] = second compound 10 µM, first compound 0.3 µM
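Note: spheroids also contain HUVEC and human MSCs and agents combined with iadademstat; spheroids exposed to agents for 7 days before readout.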

## CC1(C)CCC(CN2CCN(c3ccc(C(=O)NS(=O)(=O)c4ccc(NCC5CCOCC5)c([N+](=O)[O-])c4)c(Oc4cnc5[nH]ccc5c4)c3)CC2)=C(c2ccc(Cl)cc2)C1 + NC1CCC(NC2CC2c2ccccc2)CC1
Second compound 0.1 µM
  IC50: 5.12 µM
Second compound 0.316 µM
  IC50: 5.64 µM
Second compound 1 µM
  IC50: 4.25 µM
Second compound 3.16 µM
  IC50: 4.62 µM
Second compound 10 µM
  IC50: 4.48 µM
[1]
  viability, T/C: 75.7%
[2]
  viability, T/C: 71.4%
[3]
  viability, T/C: 72.2%
[4]
  viability, T/C: 71%
[5]
  viability, T/C: 65.2%
[6]
  viability, T/C: 29.1%
[7]
  viability, T/C: 74.2%
[8]
  viability, T/C: 75.5%
[9]
  viability, T/C: 79.7%
[10]
  viability, T/C: 71.2%
[11]
  viability, T/C: 69.7%
[12]
  viability, T/C: 30.9%
[13]
  viability, T/C: 75.2%
[14]
  viability, T/C: 78%
[15]
  viability, T/C: 68.7%
[16]
  viability, T/C: 66.1%
[17]
  viability, T/C: 60.6%
[18]
  viability, T/C: 26.7%
[19]
  viability, T/C: 68.3%
[20]
  viability, T/C: 68%
[21]
  viability, T/C: 68.8%
[22]
  viability, T/C: 70.8%
[23]
  viability, T/C: 61.7%
[24]
  viability, T/C: 24.8%
[25]
  viability, T/C: 71.7%
[26]
  viability, T/C: 64.3%
[27]
  viability, T/C: 64.7%
[28]
  viability, T/C: 70.4%
[29]
  viability, T/C: 59.5%
[30]
  viability, T/C: 26%

## CC1COCCN1c1cc(C2(S(C)(=N)=O)CC2)nc(-c2ccnc3[nH]ccc23)n1 (stereo not given) + NC1CCC(NC2CC2c2ccccc2)CC1
Second compound 0.1 µM
  IC50: 0.754 µM
Second compound 0.316 µM
  IC50: 0.851 µM
Second compound 1 µM
  IC50: 0.812 µM
Second compound 3.16 µM
  IC50: 0.546 µM
Second compound 10 µM
  IC50: 0.769 µM
[1]
  viability, T/C: 91.8%
[2]
  viability, T/C: 78.1%
[3]
  viability, T/C: 62.9%
[4]
  viability, T/C: 48.9%
[5]
  viability, T/C: 24.5%
[6]
  viability, T/C: 13.3%
[7]
  viability, T/C: 93.9%
[8]
  viability, T/C: 81.1%
[9]
  viability, T/C: 72%
[10]
  viability, T/C: 43.4%
[11]
  viability, T/C: 30.4%
[12]
  viability, T/C: 15.2%
[13]
  viability, T/C: 73.1%
[14]
  viability, T/C: 77.2%
[15]
  viability, T/C: 68.8%
[16]
  viability, T/C: 43.9%
[17]
  viability, T/C: 28.5%
[18]
  viability, T/C: 16.7%
[19]
  viability, T/C: 68.8%
[20]
  viability, T/C: 80%
[21]
  viability, T/C: 57.6%
[22]
  viability, T/C: 38.1%
[23]
  viability, T/C: 25.9%
[24]
  viability, T/C: 16.5%
[25]
  viability, T/C: 77.8%
[26]
  viability, T/C: 85.7%
[27]
  viability, T/C: 66.2%
[28]
  viability, T/C: 43.7%
[29]
  viability, T/C: 28.2%
[30]
  viability, T/C: 16.8%

## CCN(c1cc(-c2ccc(CN3CCOCC3)cc2)cc(C(=O)NCc2c(C)cc(C)[nH]c2=O)c1C)C1CCOCC1 + NC1CCC(NC2CC2c2ccccc2)CC1
Second compound 0.1 µM
  IC50: > 3 µM
Second compound 0.316 µM
  IC50: > 3 µM
Second compound 1 µM
  IC50: > 3 µM
Second compound 3.16 µM
  IC50: > 3 µM
Second compound 10 µM
  IC50: > 3 µM
[31]
  viability, T/C: 76.4%
[32]
  viability, T/C: 75.4%
[33]
  viability, T/C: 76.7%
[34]
  viability, T/C: 77.6%
Second compound 0.1 µM, first compound 0.949 µM
  viability, T/C: 75.8%
Second compound 0.1 µM, first compound 3 µM
  viability, T/C: 77.6%
[35]
  viability, T/C: 74.5%
[36]
  viability, T/C: 83.1%
[37]
  viability, T/C: 70.5%
[38]
  viability, T/C: 74.8%
Second compound 0.316 µM, first compound 0.949 µM
  viability, T/C: 80.4%
Second compound 0.316 µM, first compound 3 µM
  viability, T/C: 75.1%
[39]
  viability, T/C: 74.5%
[40]
  viability, T/C: 74.7%
[41]
  viability, T/C: 71.5%
[42]
  viability, T/C: 81%
Second compound 1 µM, first compound 0.949 µM
  viability, T/C: 72.8%
Second compound 1 µM, first compound 3 µM
  viability, T/C: 81.7%
[43]
  viability, T/C: 67.8%
[44]
  viability, T/C: 74.7%
[45]
  viability, T/C: 71.5%
[46]
  viability, T/C: 74%
Second compound 3.16 µM, first compound 0.949 µM
  viability, T/C: 72.9%
Second compound 3.16 µM, first compound 3 µM
  viability, T/C: 69%
[47]
  viability, T/C: 72.1%
[48]
  viability, T/C: 68.7%
[49]
  viability, T/C: 76.5%
[50]
  viability, T/C: 70.5%
Second compound 10 µM, first compound 0.949 µM
  viability, T/C: 66.4%
Second compound 10 µM, first compound 3 µM
  viability, T/C: 74.2%

## Nc1ncn(C2CC(O)C(CO)S2)c(=O)n1 (stereo not given) + NC1CCC(NC2CC2c2ccccc2)CC1
Second compound 0.1 µM
  IC50: 0.0266 µM
Second compound 0.316 µM
  IC50: 0.0199 µM
Second compound 1 µM
  IC50: 0.0228 µM
Second compound 3.16 µM
  IC50: 0.0131 µM
Second compound 10 µM
  IC50: 0.0163 µM
Second compound 0.1 µM, first compound 0.000949 µM
  viability, T/C: 71.9%
Second compound 0.1 µM, first compound 0.003 µM
  viability, T/C: 73.7%
[31]
  viability, T/C: 62.8%
[32]
  viability, T/C: 47.2%
[33]
  viability, T/C: 34.2%
[34]
  viability, T/C: 22.8%
Second compound 0.316 µM, first compound 0.000949 µM
  viability, T/C: 74.1%
Second compound 0.316 µM, first compound 0.003 µM
  viability, T/C: 71.8%
[35]
  viability, T/C: 60.1%
[36]
  viability, T/C: 43.9%
[37]
  viability, T/C: 30.6%
[38]
  viability, T/C: 22.9%
Second compound 1 µM, first compound 0.000949 µM
  viability, T/C: 77.1%
Second compound 1 µM, first compound 0.003 µM
  viability, T/C: 64.8%
[39]
  viability, T/C: 58.3%
[40]
  viability, T/C: 49.3%
[41]
  viability, T/C: 35.6%
[42]
  viability, T/C: 23.8%
Second compound 3.16 µM, first compound 0.000949 µM
  viability, T/C: 70.6%
Second compound 3.16 µM, first compound 0.003 µM
  viability, T/C: 62.1%
[43]
  viability, T/C: 55.3%
[44]
  viability, T/C: 39.2%
[45]
  viability, T/C: 32.7%
[46]
  viability, T/C: 22.2%
Second compound 10 µM, first compound 0.000949 µM
  viability, T/C: 65.9%
Second compound 10 µM, first compound 0.003 µM
  viability, T/C: 64.3%
[47]
  viability, T/C: 51.3%
[48]
  viability, T/C: 48.1%
[49]
  viability, T/C: 29.7%
[50]
  viability, T/C: 22.3%

## O=C(C=Cn1cnc(-c2cc(C(F)(F)F)cc(C(F)(F)F)c2)n1)NNc1cnccn1 + NC1CCC(NC2CC2c2ccccc2)CC1
Second compound 0.1 µM
  IC50: 0.00466 µM
Second compound 0.316 µM
  IC50: < 0.00316 µM
Second compound 1 µM
  IC50: 0.00506 µM
Second compound 3.16 µM
  IC50: 0.00422 µM
Second compound 10 µM
  IC50: 0.00401 µM
Second compound 0.1 µM, first compound 0.00316 µM
  viability, T/C: 55.5%
Second compound 0.1 µM, first compound 0.01 µM
  viability, T/C: 39.2%
[1]
  viability, T/C: 19.9%
[2]
  viability, T/C: 10.1%
[3]
  viability, T/C: 6.81%
[4]
  viability, T/C: 3.54%
Second compound 0.316 µM, first compound 0.00316 µM
  viability, T/C: 49.3%
Second compound 0.316 µM, first compound 0.01 µM
  viability, T/C: 37.7%
[7]
  viability, T/C: 19.9%
[8]
  viability, T/C: 9.54%
[9]
  viability, T/C: 6.12%
[10]
  viability, T/C: 3.24%
Second compound 1 µM, first compound 0.00316 µM
  viability, T/C: 56.9%
Second compound 1 µM, first compound 0.01 µM
  viability, T/C: 40%
[13]
  viability, T/C: 22.6%
[14]
  viability, T/C: 11.8%
[15]
  viability, T/C: 5.1%
[16]
  viability, T/C: 3.42%
Second compound 3.16 µM, first compound 0.00316 µM
  viability, T/C: 53.8%
Second compound 3.16 µM, first compound 0.01 µM
  viability, T/C: 38.8%
[19]
  viability, T/C: 22.6%
[20]
  viability, T/C: 12%
[21]
  viability, T/C: 6.8%
[22]
  viability, T/C: 4.08%
Second compound 10 µM, first compound 0.00316 µM
  viability, T/C: 53.4%
Second compound 10 µM, first compound 0.01 µM
  viability, T/C: 37.1%
[25]
  viability, T/C: 25.7%
[26]
  viability, T/C: 15.3%
[27]
  viability, T/C: 7.05%
[28]
  viability, T/C: 4.89%
